Experimental data from ChEMBL document CHEMBL4219215, “Discovery of {4-[4,9-bis(ethyloxy)-1-oxo-1,3-dihydro-2H-benzo[f]isoindol-2-yl]-2-fluorophenyl}acetic acid (GSK726701A), a novel EP4 receptor partial agonist for the treatment of pain” (Bioorg Med Chem Lett, 2018).

Tests used:
[1] = target: Prostaglandin F2-alpha receptor (Homo sapiens, UniProt P43088); experiment: Activity at FP receptor (unknown origin)
[2] = Protein binding in human plasma; format: ADME, cell-free; conditions: read-out: PPB
Rattus norvegicus [3] = experiment: Analgesic activity in rat model of chronic constriction injury-induced neuropathic pain assessed as reversal of mechanical allodynia at 3 mg/kg dosed twice daily for 8 days relative to untreated control; format: functional; conditions: 192 h
Thromboxane A2 receptor = target: T1, Thromboxane A2 receptor (Homo sapiens, UniProt P21731); experiment: Activity at TP receptor (unknown origin)
T1 sequence (P21731 whole entry): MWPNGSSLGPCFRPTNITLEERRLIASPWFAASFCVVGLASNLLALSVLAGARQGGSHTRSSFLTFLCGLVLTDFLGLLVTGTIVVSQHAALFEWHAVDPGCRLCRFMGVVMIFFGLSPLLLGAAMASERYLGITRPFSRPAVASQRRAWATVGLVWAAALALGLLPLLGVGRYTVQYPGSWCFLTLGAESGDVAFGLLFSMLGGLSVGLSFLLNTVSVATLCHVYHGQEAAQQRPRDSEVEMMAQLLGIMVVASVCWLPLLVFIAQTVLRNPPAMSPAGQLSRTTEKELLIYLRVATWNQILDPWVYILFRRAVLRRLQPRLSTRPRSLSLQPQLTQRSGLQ

Homo sapiens [4] = organism: Homo sapiens; experiment: Selectivity index, ratio of agonist activity at EP2 receptor (unknown origin) to pEC50 for partial agonist activity at human EP4 receptor expressed in HEK293-AEQ17 cells; format: cell-based
[5] = target: T2, Prostaglandin E2 receptor EP3 subtype (Homo sapiens, UniProt P43115); experiment: Activity at EP3 receptor (unknown origin)
T2 sequence (P43115 whole entry): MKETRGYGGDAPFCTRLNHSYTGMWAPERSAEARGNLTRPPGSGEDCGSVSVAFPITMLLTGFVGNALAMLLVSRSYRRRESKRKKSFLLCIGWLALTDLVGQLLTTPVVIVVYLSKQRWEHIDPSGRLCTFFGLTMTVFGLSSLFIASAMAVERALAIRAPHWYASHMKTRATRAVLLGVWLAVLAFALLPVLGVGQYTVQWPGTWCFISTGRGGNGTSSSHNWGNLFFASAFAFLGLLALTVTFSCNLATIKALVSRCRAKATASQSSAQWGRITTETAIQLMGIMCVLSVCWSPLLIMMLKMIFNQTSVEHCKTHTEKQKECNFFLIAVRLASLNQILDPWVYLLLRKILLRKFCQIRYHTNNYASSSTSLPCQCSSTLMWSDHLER

[6] = Half life in orally dosed dog; format: ADME, organism-based, Canis lupus familiaris; conditions: in vivo, po
Rattus norvegicus [7] = experiment: Analgesic activity in rat model of chronic joint pain assessed as reversal of pain by measuring weight bearing level at 1 mg/kg, po dosed twice daily for 5 days relative to untreated control; format: functional; conditions: 120 h
[8] = Protein binding in dog plasma; format: ADME, cell-free, Canis lupus familiaris; conditions: read-out: PPB (converted)
[9] = target: Prostacyclin receptor (Homo sapiens) (UniProt P43119); experiment: Antagonist activity at IP receptor (unknown origin) assessed as inhibition of receptor activation at 1 uM; format: functional
Chain of Prostacyclin receptor (Homo sapiens) (P43119 whole entry): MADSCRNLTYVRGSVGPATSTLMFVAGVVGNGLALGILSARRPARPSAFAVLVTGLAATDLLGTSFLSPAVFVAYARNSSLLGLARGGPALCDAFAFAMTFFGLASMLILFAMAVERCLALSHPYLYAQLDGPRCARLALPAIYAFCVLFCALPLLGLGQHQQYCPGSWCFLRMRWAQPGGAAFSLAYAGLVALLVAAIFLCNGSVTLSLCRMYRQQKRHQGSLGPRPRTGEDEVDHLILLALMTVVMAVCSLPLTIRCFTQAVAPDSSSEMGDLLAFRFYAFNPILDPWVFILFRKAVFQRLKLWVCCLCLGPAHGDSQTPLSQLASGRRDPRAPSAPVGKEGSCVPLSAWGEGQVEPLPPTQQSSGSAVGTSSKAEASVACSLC

Cytochrome P450 2C9 = Cytochrome P450 2C9 (Homo sapiens, UniProt P11712); experiment: Inhibition of human recombinant CYP2C9; format: ADME; conditions: human, recombinant enzyme
Chain of Cytochrome P450 2C9 (P11712 whole entry): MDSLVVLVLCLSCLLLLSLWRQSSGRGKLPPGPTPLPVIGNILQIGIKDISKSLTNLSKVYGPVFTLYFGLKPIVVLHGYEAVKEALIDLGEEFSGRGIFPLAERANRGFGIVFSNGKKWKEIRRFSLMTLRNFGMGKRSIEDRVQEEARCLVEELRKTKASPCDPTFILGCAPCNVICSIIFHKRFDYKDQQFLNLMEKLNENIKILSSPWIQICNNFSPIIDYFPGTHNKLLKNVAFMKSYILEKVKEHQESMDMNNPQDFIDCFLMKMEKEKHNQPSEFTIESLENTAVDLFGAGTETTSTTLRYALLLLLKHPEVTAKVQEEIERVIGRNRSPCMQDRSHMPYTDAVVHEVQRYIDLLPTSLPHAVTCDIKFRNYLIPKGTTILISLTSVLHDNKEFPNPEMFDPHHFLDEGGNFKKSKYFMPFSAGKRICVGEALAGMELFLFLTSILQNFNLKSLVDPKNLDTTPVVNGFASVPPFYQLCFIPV

[10] = Oral bioavailability in rat at 1 mg/kg; format: ADME, organism-based; conditions: in vivo
[11] = Ratio of drug level in brain to blood in rat at 1 mg/kg, po; format: ADME, organism-based
Homo sapiens [12] = organism: Homo sapiens; experiment: Selectivity index, ratio of pIC50 for DP1 receptor (unknown origin) to pEC50 for partial agonist activity at human EP4 receptor expressed in HEK293-AEQ17 cells; format: cell-based

Chain of Prostaglandin F2-alpha receptor (P43088 whole entry): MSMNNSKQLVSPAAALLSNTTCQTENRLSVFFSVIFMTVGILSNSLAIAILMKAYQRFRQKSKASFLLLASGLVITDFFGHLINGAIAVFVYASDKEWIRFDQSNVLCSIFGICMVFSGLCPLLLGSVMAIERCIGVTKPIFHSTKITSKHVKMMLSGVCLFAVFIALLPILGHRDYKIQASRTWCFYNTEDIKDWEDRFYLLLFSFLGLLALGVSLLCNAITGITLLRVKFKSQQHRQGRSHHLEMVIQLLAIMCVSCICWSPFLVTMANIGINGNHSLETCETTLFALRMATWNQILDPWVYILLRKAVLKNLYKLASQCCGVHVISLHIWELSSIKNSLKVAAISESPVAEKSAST

IC50 [1]: > 10 µM
fraction unbound [2]: 0.001
IC50 (Thromboxane A2 receptor): > 10 µM
IC50 [5]: > 10 µM
half-life [6]: 480 min
fraction unbound [8]: 0.009
inhibition [9]: 31%
INH (Cytochrome P450 2C9): > 100 µM
bioavailability [10]: 112%
Kp [11]: < 0.05
SMILES: CCOc1c2c(c(OCC)c3ccccc13)C(=O)N(c1ccc(CC(=O)O)c(F)c1)C2
inhibition in vivo at 3 mg/kg (Rattus norvegicus [3]): 100%
Selectivity ratio (Homo sapiens [4]): > 100
inhibition in vivo at 1 mg/kg (Rattus norvegicus [7]): 100%
Selectivity ratio (Homo sapiens [12]): > 100
